Assay results published in US20100255580A1, “Differentiation of Human Embryonic Stem Cells” (LIFESCCAN, INC., priority 2007, published 2010).

System: H9 embryonic stem cells
Format: cell-based, human
Conditions: low serum, on MATRIGEL
Description: Controls for each group included cells plated on […]-coated dishes and cultured in MEF-conditioned medium or cells plated on MEFs and cultured in ES medium. All groups contained three biological replicates and each biological replicate was repeated on two separate gene chips.
Sample preparation, hybridization, and image analysis were performed according to the Affymetrix Human Genome U133 Plus 2.0 Array. Following normalization and a log transformation, data analysis was performed using OmniViz® software (MA) and […] (VizXLabs, WA). Significant differences in gene expression between the samples were evaluated using analysis of variance and an F-test with adjusted P-value (Benjamini and
Hochberg correction) of ≦b 0.05. Only genes with a present call in at least one group were included in the analysis.

Q: What does the source list for “Activin A: a member of the TGFβ superfamily; R&D Systems; Group 2 = Activin A (100 ng/ml)”?
A: log intensity, H2A histone family, member X: 1.371; log intensity, H. sapiens skeletal embryonic myosin light chain 1 (MLC1): 0.6901; log intensity, HT016 mRNA: 0.2188; log intensity, Homo sapiens nudix (nucleoside diphosphate linked moiety X)-type motif (r1198): 3.915; log intensity, Human DNA sequence from clone RP4-781L3 on chromosome 1p34.3-36.11: 2.828; log intensity, Human DNA sequence from clone RP11-446H13 on chromosome 10: −0.8894; log intensity, Human MLC1emb gene for embryonic myosin alkaline light chain, promoter and exon 1: 1.3489; log intensity, Human clone 23826 mRNA sequence: 1.808; log intensity, Human embryonic myosin alkali light chain (MLC1): 1.942; log intensity, Human extracellular matrix protein 1 (ECM1): 0.6348; log intensity, Human mRNA for pro-alpha 1 (II) collagen 3end C-term.: 0.8598; log intensity, Human rho GDI mRNA: 0.01936; log intensity, KIAA0127 gene product (KIAA0127): 2.052; log intensity, KIAA0346 protein: −1.347; log intensity, KIAA0418 gene product: −0.6776; log intensity, KIAA0761 protein: −2.096; log intensity, KIAA0882 protein: 2.056; log intensity, KIAA0918 protein: −1.397; log intensity, KIAA1415 protein: 0.1859; log intensity, KIAA1511 protein: 0.6203; log intensity, Kruppel-like factor 8 (KLF8): 0.3261; log intensity, LIM homeobox protein 1 (LHX1): −0.7717; log intensity, LYST-interacting protein LIP3: −0.6821; log intensity, MAD (mothers against decapentaplegic, Drosophila) homolog 6 (MADH6): 0.9175; log intensity, MYC-associated zinc finger protein (purine-binding transcription factor) (MAZ): −0.05557; log intensity, Novel human mRNA from chromosome 22: −0.5337; log intensity, PNAS-145 mRNA: 2.85; log intensity, PRO1957 mRNA: 1.689; log intensity, PTPRF interacting protein, binding protein 2 (liprin beta 2): −1.92; log intensity, Pig10 (PIG10): 0.1295; log intensity, SG2NA beta isoform: −1.156; log intensity, Similar to B9 protein, clone MGC: 11339: 1.439; log intensity, Similar to RIKEN cDNA C330013D18 gene, clone MGC: 11226: 0.08747; log intensity, Similar to lipase protein, clone MGC: 2843: −1.161; log intensity, X75208 H. sapiens HEK2 mRNA for protein tyrosine kinase receptor: −1.367; log intensity, adaptor-related protein complex 3, beta 2 subunit (AP3B2): −0.2083; log intensity, adenylate cyclase 8 (brain) (ADCY8): −1.3408; log intensity, alpha 2,8-sialyltransferase: −1.105; log intensity, aminolevulinate, delta-, dehydratase, clone MGC: 5057: 1.3099; log intensity, annexin A6 (ANXA6), transcript variant 1: 3.89; log intensity, apolipoprotein A-II (APOA2): −1.102; log intensity, apolipoprotein C-I (APOC1): 3.25; log intensity, arrestin, beta 1 (ARRB1), transcript variant 1: −0.1588; log intensity, bHLH factor Hes4 (LOC57801): 0.4782; log intensity, beta3GalNAcT-1 mRNA for globoside synthase, clone: type 2: −2.733; log intensity, bone morphogenetic protein 2 (BMP2): 2.045; log intensity, bone morphogenetic protein 5 (BMP5): −0.6099; log intensity, bromodomain and PHD finger containing, 3: −2.8472; log intensity, c-mer proto-oncogene tyrosine kinase (MERTK): 1.79; log intensity, cDNA FLJ11390 fis, clone HEMBA1000561: −1.129; log intensity, cDNA FLJ13221 fis, clone NT2RP4002075: 0.2828; log intensity, cDNA FLJ13392 fis, clone PLACE1001280: −1.902; log intensity, cDNA FLJ13810 fis, clone THYRO1000279: −2.924; log intensity, cDNA FLJ30081 fis, clone BGGI12000693: 0.6779; log intensity, cDNA FLJ34035 fis, clone FCBBF2004788: −3.58; log intensity, cDNA FLJ36116 fis, clone TESTI2022338: 3.026; log intensity, cDNA: FLJ22731 fis, clone HSI15841: −2.309; log intensity, cDNA: FLJ22808 fis, clone KAIA2925: −0.3674; log intensity, cDNA: FLJ23067 fis, clone LNG04993: −2.256; log intensity, calmegin (CLGN): −0.1043; log intensity, cardiac ankyrin repeat protein (CARP): −0.002291; log intensity, cartilage linking protein 1: 0.8794; log intensity, caspase-like apoptosis regulatory protein 2 (clarp): 0.4342; log intensity, chemokine receptor CXCR4 mRNA: 2.306; log intensity, cleft lip and palate associated transmembrane protein 1, clone MGC: 10593: 1.316; log intensity, clone FLC1492 PRO3121 mRNA: −0.3; log intensity, clone HB-2 mRNA sequence: −0.5039; log intensity, clone IMAGE: 3509274, mRNA, partial cds: 0.4937; log intensity, clone IMAGE: 4047715, mRNA: −2.508; log intensity, clone MGC: 14801: 2.039; log intensity, clone MGC: 24252 IMAGE: 3932604: −1.533; log intensity, clone TUA8 Cri-du-chat region mRNA: 0.09218; log intensity, collagen, type V, alpha 1: 1.5875; log intensity, complement component 5 (C5): −1.896; log intensity, core histone macroH2A2.2 (MACROH2A2): 1.673; log intensity, cystatin C (amyloid angiopathy and cerebral hemorrhage) (CST3): 2.086; log intensity, deiodinase, iodothyronine, type III (DIO3): −0.1369; log intensity, dickkopf (Xenopus laevis) homolog 1 (DKK1): 0.9815; log intensity, dual specificity phosphatase 4, clone MGC: 3713: 2.115; log intensity, dynein, axonemal, light polypeptide 4 (DNAL4): 0.4583; log intensity, dystrophin (muscular dystrophy, Duchenne and Becker types) (DMD), transcript variant Dp427p2: 1.404; log intensity, ectodermal dysplasia 1, anhidrotic (ED1): 0.7966; log intensity, elongation of very long chain fatty acids (FEN1Elo2, SUR4Elo3, yeast)-like 2 (ELOVL2): 0.09998; log intensity, endothelin receptor type A (EDNRA), mRNA: 0.763; log intensity, endothelin receptor type A (r1027): −1.834; log intensity, enolase 2, (gamma, neuronal) (ENO2): 2.606; log intensity, eomesodermin (Xenopus laevis) homolog (EOMES): 2.659; log intensity, erythrocyte membrane protein band 4.9 (dematin) (EPB49): −0.3066; log intensity, fasciculation and elongation protein zeta 1 (zygin I) (FEZ1), transcript variant 1: 1.864; log intensity, forkhead box F2 (FOXF2): −1.545; log intensity, gelsolin (amyloidosis, Finnish type) (GSN): 1.6198; log intensity, glucose-6-phosphate transporter (G6PT) gene, G6PT-Dt allele: −0.1935; log intensity, glutathione S-transferase A2 (GSTA2): −3.106; log intensity, glycoprotein M6A: 0.2744; log intensity, guanylate cyclase activator 1B (retina) (GUCA1B): −0.7142; log intensity, heparan sulfate proteoglycan 2 (perlecan): −2.533; log intensity, hexabrachion (tenascin C, cytotactin) (HXB): 3.969; log intensity, high mobility group protein-R: 1.047; log intensity, hypothetical protein BC017868 (LOC159091): −0.2902; log intensity, hypothetical protein DKFZp434F0318: −1.115; log intensity, hypothetical protein DKFZp434F2322: 0.07058; log intensity, hypothetical protein DKFZp564B052: 1.478; log intensity, hypothetical protein FLJ10312: 1.595; log intensity, hypothetical protein FLJ11155: −3.346; log intensity, hypothetical protein FLJ11560: −0.04411; log intensity, hypothetical protein FLJ12538 similar to ras-related protein RAB17: 1.706; log intensity, hypothetical protein FLJ12666 (r758): 0.2158; log intensity, hypothetical protein FLJ12666 (r998): 2.341; log intensity, hypothetical protein FLJ12838: 1.491; log intensity, hypothetical protein FLJ21195 similar to protein related to DAC and cerberus: −1.385; log intensity, hypothetical protein FLJ22471: 0.9038; log intensity, hypothetical protein FLJ23091: −0.7609; log intensity, hypothetical protein FLJ23514: 0.5646; log intensity, hypothetical protein FLJ32835: −0.5956; log intensity, hypothetical protein MGC2865, clone MGC: 20246: −2.431; log intensity, insulin-like growth factor binding protein 6 (IGFBP6): 2.6126; log intensity, keratin 19 (KRT19): 3.806; log intensity, kidney-specific membrane protein NX-17: 1.919; log intensity, lipase mRNA: −2.2131; log intensity, lymphocyte antigen 6 complex, locus E (LY6E): 0.8664; log intensity, mRNA for KIAA0876 protein: −0.432; log intensity, mRNA for KIAA1161 protein: 0.7818; log intensity, mRNA for MSX-2: 0.4072; log intensity, mRNA for protein-tyrosine kinase: 0.161; log intensity, mRNA; cDNA DKFZp434E082: 1.364; log intensity, mRNA; cDNA DKFZp434K0621: 0.5814; log intensity, mRNA; cDNA DKFZp434P228: 1.768; log intensity, mRNA; cDNA DKFZp547H236: 1.372; log intensity, mRNA; cDNA DKFZp564K1672: 4.494; log intensity, mRNA; cDNA DKFZp586G2120: −1.809; log intensity, mRNA; cDNA DKFZp586L0120: −2.726; log intensity, mRNA; cDNA DKFZp762H185: 2.837; log intensity, mandaselin long form: −0.1481; log intensity, matrix metalloproteinase 15 (membrane-inserted) (MMP15): −0.2985; log intensity, microseminoprotein, beta-(MSMB): −2.379; log intensity, mitogen-activated protein kinase 10 (MAPK10): 0.648; log intensity, nuclear factor of kappa light polypeptide gene enhancer in B-cells inhibitor, alpha: 2.915; log intensity, nuclear receptor subfamily 0, group B, member 1 (NR0B1) (r534): −1.928; log intensity, nuclear receptor subfamily 0, group B, member 1 (NR0B1) (r1079): −0.2138
